Tests used:
[1] = tested on: patients with GAD; settings: cited from earlier work
[2] = tested on: patients with treatment resistant major depression; experiment: Example 24: augmentation of antidepressant therapy, quetiapine versus lithium, 56 days
Protocol: The study compared tolerability and efficacy. […] Lithium was initiated at 600 mg/day, and maintained over Week 1 and 2 and subsequently adjusted to attain a level of 0.8-1.2 mmol/L. Lithium levels were taken weekly.
A total of 20 patients were randomized to 1 of the 2 treatment groups. The study population included men and women aged 18-65 years, with a diagnosis of major depression according to DSM-IV, Hamilton Depression Rating Scale (HAM-D)≧20 and a Clinical Global […] (CGI) score ≧4.
Patients were evaluated at baseline and then on days 7, 14, 28, 42, and 56 using the HAM-D, Montgomery-Asberg […] (MADRS), SAS, and Widlocher Psychomotor Retardation Scale.

[3] = tested on: patients resistant to anti-depressant treatment; settings: within 4 weeks; adjunct to anti-depressant therapy; cited from earlier work
[4] = tested on: patients with GAD; settings: cited from earlier work; remark: listed apart in the source
[5] = tested on: patients with PTSD
From the text: To be included, patients had to be diagnosed with PTSD according to DSM-IV criteria. Patients with comorbid psychotic disorders or substance abuse problems were excluded. […] The dose was split between morning and night time so that the majority of the dose was taken at bedtime.
The primary efficacy endpoints were: (1) change from baseline to endpoint in the Clinician Administered PTSD Scale (CAPS) total score; and (2) the percentage of patients meeting PTSD diagnostic criteria at endpoint. […] Adverse events (AEs) and patient adherence were also evaluated. Forty-seven patients were included in each treatment group.

[6] = add-on to antidepressant, mean doses quetiapine 430 mg/day, lithium 825 mg/day

COc1ccc(C(CN(C)C)C2(O)CCCCC2)cc1 (stereo not shown) [Venlafaxine XR, venlafaxine]
change in HAM-A total score compared to placebo ([1]; at 6 months, another long-term study): 5.4
difference in HAM-A total score ([1]; long-term study, s.d.=7.5): 4.18 points

[Li] [lithium]
Widlocher Psychomotor Retardation Scale mean baseline score ([2]; add-on to antidepressant): about 22
Widlocher Psychomotor Retardation Scale mean score after treatment ([2]; add-on to antidepressant): about 15
mean MADRS score after Day 7 up to Day 56 (end value) ([2]; add-on to antidepressant): about 22
mean HAM-D score at Day 56 [2, 6]: about 15
mean HAM-D score, start value of 'From Day 7 to 56' [2, 6]: about 28
patients in remission (HAM-D) ([2]; after 56 days): 40%
patients who responded (MADRS) ([2]; after 56 days): 50%
patients who responded to treatment (HAM-D) ([2]; after 56 days): 50%
patients who achieved remission (MADRS) ([2]; at 56 days): 30%
patients who respond [3]: ~50%

Fc1ccc([C@@H]2CCNC[C@H]2COc2ccc3c(c2)OCO3)cc1 [paroxetine]
percent remission ([4]; placebo 30%): 70%
relapse ([4]; relapse = increase in CGI-S score of at least 2 points to >=4, or withdrawal from lack of efficacy, placebo 39.9%): 10.9%

CN[C@H]1CC[C@@H](c2ccc(Cl)c(Cl)c2)c2ccccc21 [sertraline+placebo, sertraline]
mean improvement (decrease) from baseline to endpoint in CAPS total score ([5]; 8 weeks): about 53
patients still meeting PTSD diagnostic criteria ([5]; after 8 weeks of treatment, disparity not seen with LOCF analysis): 37%
CGI-I scores ([5]; in vivo): significant increase
mean HAM-D scores and CGI-S scores, baseline to endpoint ([5]; in vivo): decreased significantly
patients that experienced at least one AE ([5]; of 59 in the study): 31 patients

Reference: patent US20110319384A1, “Pharmaceutical Compositions” (priority 2005, published 2011)
